The values below come from patent US20130072517A1 (Avanir Pharmaceuticals, Inc., priority 2002, published 2013).

This test deals with ALS subjects with pseudobulbar affect. Briefly: Clinical Study #4: CNS-LS score (primary efficacy). Format: in vivo, human. The conditions noted are these: for Difference vs 30DM/30Q, mean difference in the CNS-LS reduction: controlling for baseline CNS-LS and study site. From the text: This was a multicenter, randomized, double-blind, controlled, parallel-group study. All study drugs were self-administered orally every twelve hours for twenty-eight days. The study included a screening visit and three other clinic visits on Days 1, 15, and 29. Day 29 was the last day the subject was on study and could occur anywhere between the morning of Day 26 and the morning of Day 32.
Subjects with clinically diagnosed pseudobulbar affect were screened for general health within four weeks before entry into the study. All eligible subjects had attained a score of 13 or above on the Center for Neurologic Study-Lability Scale (CNS-LS) at the clinic visit on Day 1.
Diary cards were collected on Day 15 and at the time of study completion.
Subjects completed the CNS-LS questionnaire and visual analog scales assessing quality of life (QOL) and quality of relationships (QOR) every two weeks (Days 1, 15, and 29) during the treatment period. A clinical psychologist, or other approved clinician, administered the Hamilton Rating Scale for Depression (HRSD) at the Screening Visit and on Day 29. Safety was evaluated on Day 15 and Day 29 by examining adverse events, results of physical examinations, vital signs, clinical laboratory values, and resting electrocardiograms (ECGs). In addition to blood samples taken to provide clinical laboratory data, blood was also taken for pharmacokinetic analysis and CYP2D6 genotyping. Each subject completed a diary in which the number of episodes experienced, medications taken, and any adverse events were recorded daily.
The primary efficacy variable was the CNS-LS score. All efficacy variables involving a change were determined by the baseline score being subtracted from the mean of the non-missing scores on Days 15 and 29. The secondary efficacy variables were laughing/crying episodes, QOL scores, and QOR scores. […]
The CNS-LS questionnaire used to assess primary efficacy is a seven-item self-report measure that provides a score for total pseudobulbar affect; it required approximately five minutes for the subject to complete. The range of possible scores was 7 to 35. […] This questionnaire is the only instrument for the measurement of pseudobulbar affect validated for use with ALS subjects.
The primary efficacy analysis was the change from baseline in CNS-LS scores, adjusted for center and baseline CNS-LS score. The descriptive statistics for the ITT Population are in Table 29.
These distributions have not been adjusted for baseline scores or for study site. […] As prospectively specified in the protocol, the differences in mean improvement in CNS-LS scores, adjusted for center and baseline CNS-LS scores, were analyzed by using linear regression according to the ANCOVA method of Frison and Pocock.

The mark [1] stands for this setting: ITT population, mean of scores on Day 15 and Day 29 minus baseline (Day 1) score.

In the case of `COc1ccc2c(c1)[C@]13CCCCC1[C@H](C2)N(C)CC3` (single isomer, unassigned; (+)) [Dextromethorphan, (+)-3-methoxy-N-methylmorphinan], the “Difference vs 30DM/30Q, mean difference in the CNS-LS reduction” value (“Difference … in the CNS-LS reduction” for short) (Efficacy Evaluable Population (n = 101)) is reported as −3.78. Also, the “Difference … in the CNS-LS reduction” value (ITT Population (n = 125)) is recorded as −3.29. For the same molecule, under setting [1], the “Change in CNS-LS scores, Max” value is 2.0; the “Change in CNS-LS scores, Mean” value was −5.12; the “Change in CNS-LS scores, Median” value is reported as −4.50; the “Change in CNS-LS scores, Min” value is reported as −25.00. Moreover, where the note is “Safety Population (n = 136)”, the “Difference … in the CNS-LS reduction” value was −3.09.
